Molecular target: MNK2a (Homo sapiens (Human), UniProt Q9HBH9)
Test: MNK2a in vitro kinase assay (Assay 2), ADP-Glo
Assay type: biochemical
Details: read-out: MNK2 IC50
Experimental: B. MNK2a In vitro Kinase Assay (Assay 2)
ASSAY SETUP: The inhibition of kinase activity of MNK2a was assessed using pre-activated GST-MNK2a. The white, 384-well OptiPlate F plates were purchased from PerkinElmer. The ADP-Glo Kinase Assay (including ultra pure ATP) was purchased from Promega (V9103). Activated MNK2a was obtained as described in WO2011/104340. […] ID No. 5 of WO 2011/104340 by the C-terminal —CONH2 group, was purchased from Thermo Fisher Scientific. All other materials were of highest grade commercially available. Compounds are tested in either serial dilutions or single dose concentrations. The compound stock solutions are 10 mM in 100% DMSO The serial compound dilutions are prepared in 100% DMSO followed by 1:27.3 intermediate dilution in assay buffer. The final DMSO concentration in assay will be <3%. In the 384-well plates 3 μl of test compound from the intermediate dilution is mixed with 4 μl of the activated MNK2 enzyme (final concentration of 10 nM) and 4 μl of the peptide (final concentration of 25 μM)/ultra pure ATP (final concentration of 20 μM), all dissolved in assay buffer. This step is followed by an incubation time of 90 min, then 10 μl of ADP Glo reagent are added, followed by 40 min of incubation. Then 20 μl of kinase detection reagent are admixed. The plates are sealed and after an incubation period of 30 min, the luminescence signal is measured in an Envision reader to determine the amount of produced ADP. All incubation steps are performed at room temperature. The assay buffer consists of 20 mM HEPES, 2 mM DTT, 0.01% BSA, 20 mM MgCl2 and 0.1% Pluronic F-127.
The luminescent signal generated is proportional to the ADP concentration produced and is correlated with activated MNK2 activity. The analysis of the data is performed by the calculation of the percentage of ATP consumption of activated MNK2 in the presence of the test compound compared to the consumption of ATP in the presence of activated MNK2 without compound. (RLU(sample)−RLU(low control))*100/(RLU(high value)−RLU(low control)) [RLU=relative luminescence units]
[…] values based on dose response curves are calculated with the AssayExplorer software.

MNK2a, sequence (Q9HBH9 whole entry): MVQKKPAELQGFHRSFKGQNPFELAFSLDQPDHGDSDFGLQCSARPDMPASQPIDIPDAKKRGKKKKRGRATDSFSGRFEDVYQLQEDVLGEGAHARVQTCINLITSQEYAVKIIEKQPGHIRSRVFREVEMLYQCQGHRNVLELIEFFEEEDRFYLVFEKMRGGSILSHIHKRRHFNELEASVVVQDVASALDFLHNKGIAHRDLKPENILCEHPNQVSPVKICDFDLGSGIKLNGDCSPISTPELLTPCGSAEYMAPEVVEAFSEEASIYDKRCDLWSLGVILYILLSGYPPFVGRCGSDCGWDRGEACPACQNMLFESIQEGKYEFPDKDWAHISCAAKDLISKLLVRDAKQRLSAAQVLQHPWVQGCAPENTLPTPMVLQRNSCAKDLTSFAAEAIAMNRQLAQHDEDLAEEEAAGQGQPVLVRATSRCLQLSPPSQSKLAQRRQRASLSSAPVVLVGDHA

Structure (SMILES) | IC50
Cc1cc(C(C)Oc2cc(C(N)=O)ccc2Nc2ncnc3cc(N=S(C)(C)=O)cc(C)c23)on1 (stereo not shown) [Example 1.012] | 6 nM
Cc1cc(N=S(C)(C)=O)cc2ncnc(Nc3ccc(F)cc3OCC3CCO3)c12 (stereo not shown) [Example 3.013] | 8 nM
Cc1cc(N=S(C)(C)=O)cc2ncnc(Nc3ccc(F)cc3OCC3CCOCC3)c12 [Example 3.045] | 10 nM
CCOC(=O)[C@@H](C)Oc1cc(F)ccc1Nc1ncnc2cc(N=S3(=O)CCCC3)cc(C)c12 [Example 3.012] | 23 nM
CCNC(=O)N1CCS(=O)(=Nc2cc(C)c3c(Nc4ccc(F)cc4O[C@H](C)c4cc(C)no4)ncnc3c2)CC1 [Example 5.008] | 2 nM
C[C@H](NC(=O)[C@@H](C)Oc1cc(F)ccc1Nc1ncnc2cc(N=S(C)(C)=O)cc(F)c12)C(F)(F)F [Example 4.118] | 3 nM
Cc1cc(N=S2(=O)CCCC2)cc2ncnc(Nc3ccc(F)cc3O[C@H](C)C(=O)N3CCC(O)C3)c12 (stereo partly shown) [Example 4.010] | 4 nM
Cc1cc(N=S2(=O)CCCC2)cc2ncnc(Nc3ccc(F)cc3O[C@H](C)C(=O)NCC(F)(F)F)c12 [Example 4.074] | 1 nM
Cc1cc(N=S(C)(C)=O)cc2ncnc(Nc3ccc(F)cc3OC[C@@H]3CCC(=O)N3)c12 [Example 3.043] | 5 nM
CCC(C)NC(=O)[C@@H](C)Oc1cc(F)ccc1Nc1ncnc2cc(N=S(C)(C)=O)cc(C)c12 (stereo partly shown) [Example 4.048] | 2 nM
C[C@@H](Oc1cc(F)ccc1Nc1ncnc2cc(N=S3(=O)CCC3)cc(Cl)c12)C(=O)NCC(F)(F)F [Example 4.138] | 1 nM
Cc1cc(N=S(C)(C)=O)cc2ncnc(Nc3ccc(F)cc3OCC3(C(F)(F)F)CC3)c12 [Example 3.027] | 2 nM
Cc1cc(N=S(C)(C)=O)cc2ncnc(Nc3ccc(F)cc3O[C@H](C)C(=O)N[C@@H]3CCC[C@H]3O)c12 [Example 4.065] | 9 nM
Cc1cc(N=S(C)(C)=O)cc2ncnc(Nc3ccc(F)cc3O[C@H](C)C(=O)N(C)C(C)C)c12 [Example 4.064] | 8 nM
Cc1cc(N=S(C)(C)=O)cc2ncnc(Nc3ccc(C(N)=O)cc3OC(C)C)c12 [Example 1.014] | 5 nM
Cc1cc(N=S2(=O)CCC2)cc2ncnc(Nc3ccc(F)cc3O[C@H](C)C(=O)NC(C)C)c12 [Example 4.081] | 2 nM
Cc1cc(N=S(C)(C)=O)cc2ncnc(Nc3ccc(F)cc3O[C@H](C)C(=O)N(CC(F)(F)F)CC(F)(F)F)c12 [Example 3.055] | 3 nM
C[C@@H](Oc1cc(F)ccc1Nc1ncnc2cc(N=S(C)(=O)C3CCOCC3)cc(F)c12)C(=O)NCC(F)(F)F (stereo partly shown) [Example 2.025] | 7 nM
Cc1cc(N=S(C)(C)=O)cc2ncnc(Nc3ccc(F)cc3O[C@H](C)C(=O)N3CC[S+]([O-])CC3)c12 [Example 4.030] | 11 nM
C[C@@H](Oc1cc(F)ccc1Nc1ncnc2cc(N=S(C)(C)=O)cc(Cl)c12)C(=O)NCC(F)(F)F [Example 4.091] | 1 nM

Structure (SMILES) | IC50
C[C@@H](Oc1cc(F)ccc1Nc1ncnc2cc(N=S(C)(C)=O)cc(F)c12)C(=O)NC(CF)CF [Example 4.121] | 5 nM
Cc1cc(N=S2(=O)CCC2)cc2ncnc(Nc3ccc(Cl)cc3O[C@H](C)C(=O)N[C@@H](C)C(F)(F)F)c12 [Example 4.079] | 1 nM
Cc1cc(N=S2(=O)CCCC2)cc2ncnc(Nc3ccc(F)cc3O[C@H](C)C(=O)NCC#N)c12 [Example 4.007] | 2 nM
Cc1cc([C@@H](C)Oc2cc(F)ccc2Nc2ncnc3cc(N=S4(=O)CCNCC4)cc(C)c23)on1 [Example 2.016] | 1 nM
C[C@@H](Oc1cc(F)ccc1Nc1ncnc2cc(N=S(C)(C)=O)cc(Cl)c12)C(=O)NCC#N [Example 4.085] | 2 nM
Cc1cc(N=S(C)(C)=O)cc2ncnc(Nc3ccc(F)cc3O[C@@H](C)CN)c12 [Example 3.024] | 16 nM
Cc1cc(N=S2(=O)CCCC2)cc2ncnc(Nc3ccc(F)cc3O[C@H](C)C(=O)NCC(F)F)c12 [Example 4.043] | 2 nM
Cc1cc(N=S2(=O)CCC2)cc2ncnc(Nc3ccc(Cl)nc3O[C@H](C)C(=O)NCC(F)(F)F)c12 [Example 4.124] | 1 nM
Cc1cc(N=S2(=O)CCC2)cc2ncnc(Nc3ccc(F)cc3O[C@H](C)C(=O)NCCC(F)F)c12 [Example 4.116] | 2 nM
C[C@@H](Oc1cc(F)ccc1Nc1ncnc2cc(N=S3(=O)CC(C)(C)C3)cc(Cl)c12)C(=O)NCC(F)(F)F [Example 2.037] | 2 nM
C[C@@H](Oc1cc(F)ccc1Nc1ncnc2cc(N=S3(=O)CCC3)cc(F)c12)C(=O)NCC(F)F [Example 4.123] | 3 nM
CC(C)Oc1ncccc1Nc1ncnc2cc(N=S(C)(C)=O)cc(F)c12 [Example 2.015] | 190 nM
Cc1cc(N=S2(=O)CCC2)cc2ncnc(Nc3ccc(F)cc3O[C@H](C)C(=O)NCCC(F)(F)F)c12 [Example 4.089] | 1 nM
COc1cc(N=S2(=O)CCC2)cc2ncnc(Nc3ccc(F)cc3O[C@H](C)C(=O)NCC(F)(F)F)c12 [Example 2.047] | 3 nM
Cc1cc(N=S2(=O)CCC2)cc2ncnc(Nc3ccc(Cl)cc3O[C@H](C)C(=O)N[C@@H](C)C#N)c12 [Example 4.147] | 3 nM
C[C@@H](C#N)NC(=O)[C@@H](C)Oc1cc(F)ccc1Nc1ncnc2cc(N=S3(=O)CCC3)cc(C(F)F)c12 [Example 4.102] | 2 nM
Cc1cc(N=S(C)(C)=O)cc2ncnc(Nc3ccc(F)cc3O[C@H](C)C(=O)N[C@@H](C)C(F)(F)F)c12 [Example 4.127] | 2 nM
COc1cc(N=S2(=O)CCCC2)cc2ncnc(Nc3ccc(F)cc3O[C@H](C)C(=O)NCC(F)(F)F)c12 [Example 3.011] | 2 nM
Cc1cc(N=S2(=O)CCC2)cc2ncnc(Nc3ccc(F)cc3O[C@H](C)C(=O)NCC(F)(F)F)c12 [Example 4.139] | 1 nM

Molecular target: MNK1 (Homo sapiens (Human), UniProt Q9BUB5)
Sequence (Q9BUB5 other isoform, or with tags, fused parts or gaps): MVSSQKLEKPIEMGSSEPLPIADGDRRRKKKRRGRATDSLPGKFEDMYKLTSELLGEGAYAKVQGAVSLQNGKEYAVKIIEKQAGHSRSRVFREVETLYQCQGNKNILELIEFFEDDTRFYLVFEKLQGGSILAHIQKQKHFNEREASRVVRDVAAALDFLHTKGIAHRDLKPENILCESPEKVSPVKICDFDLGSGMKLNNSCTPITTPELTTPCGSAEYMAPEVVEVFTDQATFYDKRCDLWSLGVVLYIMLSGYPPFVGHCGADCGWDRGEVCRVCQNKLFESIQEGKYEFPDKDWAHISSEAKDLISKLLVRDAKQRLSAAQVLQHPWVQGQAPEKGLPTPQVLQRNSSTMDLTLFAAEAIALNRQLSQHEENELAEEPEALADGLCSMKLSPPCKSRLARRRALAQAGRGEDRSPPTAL
Test: MNK1 in vitro kinase assay (Assay 3), Z'-LYTE
Assay type: biochemical
Details: not given
Source text: C. MNK1 In vitro Kinase Assay (Assay 3)
MNK1 Data can be obtained from the MNK1 Z′-LYTE® assay. The MNK1 Z′-LYTE® screening protocol and assay conditions are also described on www.invitrogen.com.
The assay is described as follows:
The Z′-LYTE® biochemical assay employs a fluorescence-based, coupled-enzyme format and is based on the differential sensitivity of phosphorylated and non-phosphorylated peptides to proteolytic cleavage. The peptide substrate is labeled with two fluorophores—one at each end—that make up a FRET pair.
In the primary reaction, the kinase transfers the gamma-phosphate of ATP to a single tyrosine, serine or threonine residue in a synthetic FRET-peptide. In the secondary reaction, a site-specific protease recognizes and cleaves non-phosphorylated FRET-peptides. Phosphorylation of FRET-peptides suppresses cleavage by the Development Reagent. Cleavage disrupts FRET between the donor (i.e., coumarin) and acceptor (i.e., fluorescein) fluorophores on the FRET-peptide, whereas uncleaved, phosphorylated FRET-peptides maintain FRET. A ratiometric method, which calculates the ratio (the Emission Ratio) of donor emission to acceptor emission after excitation of the donor fluorophore at 400 nm, is used to quantitate reaction progress, as shown in the equation below.
ASSAY SETUP: The inhibition of kinase activity of MNK1a was assessed using pre-activated GST-MNK1a. The 2×MKNK1 (MNK1) mixture is prepared in 50 mM HEPES pH 7.5, 0.01% BRIJ-35, 10 mM MgCl2, 4 mM MnCl2, 1 mM EGTA, 2 mM DTT.
The Test Compounds are screened in 1% DMSO (final) in the well.
All Peptide/Kinase Mixtures are diluted to a 2× working concentration in the MNK1 Kinase Buffer.
All ATP Solutions are diluted to a 4× working concentration in Kinase Buffer (50 mM HEPES pH 7.5, 0.01% BRIJ-35, 10 mM MgCl2, 1 mM EGTA).
Development Reagent Solution:
The Development Reagent is diluted in Development Buffer
1. 2.5 μL—4× Test Compound
2. 5 μL—2× Peptide/Kinase Mixture
5. 60-minute Kinase Reaction incubation at room temperature
6. 5 μl—Development Reagent Solution
8. 60-minute Development Reaction incubation at room temperature
9. Read on fluorescence plate reader and analyze the data
The following equations are used for each set of data points: […]
Correction for Background Fluorescence: FlSample-FlTCFl Ctl
% Phosphorylation (% Phos): 1−((Emission Ratio×F100%)−C100%)/((C0%−C100%)+[Emission Ratio×(F100%−F0%)])*100%
% Inhibition: 1−(% PhosSample/% Phos0% Inhibition Ctl)*100
Fl=Fluorescence Intensity
C100%=Average Coumarin emission signal of the 100% Phos. Control
C0%=Average Coumarin emission signal of the 0% Phos. Control
F100%=Average Fluorescein emission signal of the 100% Phos. Control
F0%=Average Fluorescein emission signal of the 0% Phos. Control
SelectScreen® Kinase Profiling Service uses XLfit from IDBS.

Structure (SMILES) | IC50
CCNC(=O)N1CCS(=O)(=Nc2cc(C)c3c(Nc4ccc(F)cc4O[C@H](C)c4cc(C)no4)ncnc3c2)CC1 [Example 5.008] | 39 nM
C[C@H](NC(=O)[C@@H](C)Oc1cc(F)ccc1Nc1ncnc2cc(N=S(C)(C)=O)cc(F)c12)C(F)(F)F [Example 4.118] | 21 nM
Cc1cc(N=S2(=O)CCCC2)cc2ncnc(Nc3ccc(F)cc3O[C@H](C)C(=O)NCC(F)(F)F)c12 [Example 4.074] | 38 nM
C[C@@H](Oc1cc(F)ccc1Nc1ncnc2cc(N=S3(=O)CCC3)cc(Cl)c12)C(=O)NCC(F)(F)F [Example 4.138] | 27 nM

Same assay, conditions: compound concentration of 1 μM, read-out: MNK1 % INH

Structure (SMILES) | inhibition at 1 µM
Cc1cc(C(C)Oc2cc(C(N)=O)ccc2Nc2ncnc3cc(N=S(C)(C)=O)cc(C)c23)on1 (stereo not shown) [Example 1.012] | 96%
Cc1cc(N=S(C)(C)=O)cc2ncnc(Nc3ccc(F)cc3OCC3CCO3)c12 (stereo not shown) [Example 3.013] | 88%
Cc1cc(N=S(C)(C)=O)cc2ncnc(Nc3ccc(F)cc3OCC3CCOCC3)c12 [Example 3.045] | 78%
CCOC(=O)[C@@H](C)Oc1cc(F)ccc1Nc1ncnc2cc(N=S3(=O)CCCC3)cc(C)c12 [Example 3.012] | 100%
C[C@H](NC(=O)[C@@H](C)Oc1cc(F)ccc1Nc1ncnc2cc(N=S(C)(C)=O)cc(F)c12)C(F)(F)F [Example 4.118] | 99%
Cc1cc(N=S2(=O)CCCC2)cc2ncnc(Nc3ccc(F)cc3O[C@H](C)C(=O)N3CCC(O)C3)c12 (stereo partly shown) [Example 4.010] | 89%
Cc1cc(N=S(C)(C)=O)cc2ncnc(Nc3ccc(F)cc3OC[C@@H]3CCC(=O)N3)c12 [Example 3.043] | 82%
CCC(C)NC(=O)[C@@H](C)Oc1cc(F)ccc1Nc1ncnc2cc(N=S(C)(C)=O)cc(C)c12 (stereo partly shown) [Example 4.048] | 98%
C[C@@H](Oc1cc(F)ccc1Nc1ncnc2cc(N=S3(=O)CCC3)cc(Cl)c12)C(=O)NCC(F)(F)F [Example 4.138] | 64%
Cc1cc(N=S(C)(C)=O)cc2ncnc(Nc3ccc(F)cc3OCC3(C(F)(F)F)CC3)c12 [Example 3.027] | 98%
Cc1cc(N=S(C)(C)=O)cc2ncnc(Nc3ccc(F)cc3O[C@H](C)C(=O)N[C@@H]3CCC[C@H]3O)c12 [Example 4.065] | 93%
Cc1cc(N=S(C)(C)=O)cc2ncnc(Nc3ccc(F)cc3O[C@H](C)C(=O)N(C)C(C)C)c12 [Example 4.064] | 82%
Cc1cc(N=S(C)(C)=O)cc2ncnc(Nc3ccc(C(N)=O)cc3OC(C)C)c12 [Example 1.014] | 97%
Cc1cc(N=S(C)(C)=O)cc2ncnc(Nc3ccc(F)cc3O[C@H](C)C(=O)N(C)CCc3ccccc3)c12 [Example 4.037] | 45%
COC1CCN(C(=O)[C@@H](C)Oc2cc(F)ccc2Nc2ncnc3cc(N=S(C)(C)=O)cc(C)c23)CC1 [Example 4.073] | 70%
